Test results as given in patent US20240246916A1, “7-NITRO-8-HYDROXYQUINOLINE DERIVATIVES, PREPARATION METHOD THEREFORE AND MEDICAL USE THEREOF” (Jiangsu Yahong Meditech Co., Ltd., priority 2021, published 2024).
≈ marks a conversion by molar mass, not a printed value. Read-outs that look alike come from different tables or passages of the source.

Columns and labels:
Assay type in all cases: cell-based
[1] = tested on: Acinetobacter baumannii (carbapenem-resistant clinical isolates; ATCC19606); experiment: MIC by micro broth dilution (CLSI), Acinetobacter baumannii; settings: Acinetobacter baumannii; for MIC50 / MIC90: ATCC19606
From the text: (§1) The test bacteria were one strain of clinically isolated carbapenem-resistant Escherichia coli, two strains of carbapenem-resistant Acinetobacter baumannii, two strains of methicillin-resistant Staphylococcus aureus, two strains of sensitive Staphylococcus aureus, and 7 strains of Klebsiella pneumoniae. Duplicate strains isolated from the same patient were eliminated. There were also […] quality control strains Escherichia coli ATCC25922, Acinetobacter baumannii ATCC19606, Staphylococcus aureus ATCC29213, Klebsiella pneumoniae ATCC BAA-1705, ATCC 43816, ATCC BAA-2472, ATCC-BAA-1898, ATCC-BAA-1899, NCTC 13440 and ATCC-BAA-2470. There were 24 strains in total.
(§2) According to the recommendations of relevant documents of the American Clinical and Laboratory Standards Institute (CLSI), the micro broth dilution method was used to determine the MIC of the compounds of the present invention against clinically isolated strains. • 3.1 Formulation of antibacterial drug: All the compounds of the present invention were dissolved in DMSO. The drug concentration range was 128 mg/L to 0.06 mg/L. • 3.2 Culture medium: The drug susceptibility test used cation adjusted Mueller-Hinton broth (CAMHB). • 3.3 Amount of inoculum: The test bacteria cultured overnight were adjusted to 0.5 McFarland turbidity by the direct colony suspension method, and diluted 100 folds, the final inoculum amount was 10^5 CFU/mL. • 3.4 Culture conditions: The test bacteria were cultured at 35±2° C. for 20 hours in air.
(§3) The drug susceptibility test results were interpretated by reference to CLSI 2019 M100 29th edition criteria.
(§4) The quality control strains of the drug susceptibility test were Escherichia coli ATCC 25922, Acinetobacter baumannii ATCC 19606, Staphylococcus aureus ATCC 29213, Klebsiella pneumoniae ATCC BAA-1705, ATCC 43816, ATCC BAA-2472, ATCC-BAA-1898, ATCC-BAA-1899, NCTC 13440 and ATCC-BAA-2470.
(§5) The results of drug susceptibility test were statistically analyzed by WHONET software (version 5.6).

[2] = tested on: Staphylococcus aureus (methicillin-resistant and sensitive clinical isolates; ATCC29213); experiment: MIC by micro broth dilution (CLSI), Staphylococcus aureus
From the text: as §1, §2, §3, §4, §5

[3] = tested on: Escherichia coli (carbapenem-resistant clinical isolate; ATCC25922); experiment: MIC by micro broth dilution (CLSI), Escherichia coli; settings: Escherichia coli
From the text: as §1, §2, §3, §4, §5

[4] = clinical strains, micro broth dilution, CAMHB, 35±2° C., 20 hours, read-out: MIC50 Acinetobacter baumannii Clinical strain
[5] = clinical strains, micro broth dilution, CAMHB, 35±2° C., 20 hours, read-out: MIC90 Acinetobacter baumannii Clinical strain
[6] = standard strain ATCC19606, micro broth dilution, CAMHB, 35±2° C., 20 hours, read-out: MIC Acinetobacter baumannii Standard strain ATCC19606
[7] = clinical strains, micro broth dilution, CAMHB, 35±2° C., 20 hours, read-out: MIC50 Staphylococcus aureus Clinical strain
[8] = clinical strains, micro broth dilution, CAMHB, 35±2° C., 20 hours, read-out: MIC90 Staphylococcus aureus Clinical strain
[9] = standard strain ATCC29213, micro broth dilution, CAMHB, 35±2° C., 20 hours, read-out: MIC Staphylococcus aureus Standard strain ATCC29213
[10] = clinical strains, micro broth dilution, CAMHB, 35±2° C., 20 hours, read-out: MIC50 Escherichia coli Clinical strain
[11] = clinical strains, micro broth dilution, CAMHB, 35±2° C., 20 hours, read-out: MIC90 Escherichia coli Clinical strain
[12] = standard strain ATCC25922, micro broth dilution, CAMHB, 35±2° C., 20 hours, read-out: MIC Escherichia coli Standard strain ATCC25922
[13] = Clinical strain, read-out: MIC50
[14] = Clinical strain, read-out: MIC90
[15] = Standard strain ATCC19606, read-out: MIC
[16] = Standard strain ATCC29213, read-out: MIC
[17] = ATCC25922, Clinical strain, read-out: MIC50
[18] = ATCC25922, Clinical strain, read-out: MIC90
[19] = Standard strain ATCC25922, read-out: MIC

| SMILES | MIC50 [1, 4] [µg/mL] | MIC90 [1, 5] [µg/mL] | MIC [1, 6] [µg/mL] | MIC50 [2, 7] [µg/mL] | MIC90 [2, 8] [µg/mL] | MIC [2, 9] [µg/mL] | MIC50 [3, 10] [µg/mL] | MIC90 [3, 11] [µg/mL] | MIC [3, 12] [µg/mL] | MIC50 [1, 13] [µg/mL] | MIC90 [1, 14] [µg/mL] | MIC [1, 15] [µg/mL] | MIC50 [2, 13] [µg/mL] | MIC90 [2, 14] [µg/mL] | MIC [2, 16] [µg/mL] | MIC50 [3, 17] [µg/mL] | MIC90 [3, 18] [µg/mL] | MIC [3, 19] [µg/mL] |
| --- | --- | --- | --- | --- | --- | --- | --- | --- | --- | --- | --- | --- | --- | --- | --- | --- | --- | --- |
| O=[N+]([O-])c1c(Br)c(F)c2cccnc2c1O [Example 124, 6-bromo-5-fluoro-7-nitroquinolin-8-ol] | 4 (≈ 13.9 µM) | 8 (≈ 27.9 µM) | 8 (≈ 27.9 µM) | 4 (≈ 13.9 µM) | 4 (≈ 13.9 µM) | 4 (≈ 13.9 µM) | 16 (≈ 55.7 µM) | 64 (≈ 223 µM) | 8 (≈ 27.9 µM) |  |  |  |  |  |  |  |  |  |
| O=[N+]([O-])c1c(F)c(Cl)c2cccnc2c1O [Example 110, 5-chloro-6-fluoro-7-nitroquinolin-8-ol] |  |  |  |  |  |  |  |  |  | 8 (≈ 33 µM) | 8 (≈ 33 µM) | 8 (≈ 33 µM) | 2 (≈ 8.24 µM) | 2 (≈ 8.24 µM) | 4 (≈ 16.5 µM) | 16 (≈ 66 µM) | 64 (≈ 264 µM) | 8 (≈ 33 µM) |
| O=C1CN(Cc2cnc3c(O)c([N+](=O)[O-])ccc3c2)CCN1 [Example 100, 4-((8-hydroxy-7-nitroquinolin-3-yl)methyl)piperazin-2-one] |  |  |  |  |  |  |  |  |  | > 128 | > 128 | > 128 | > 128 | > 128 | > 128 | > 128 | > 128 | > 128 |
| O=[N+]([O-])c1c(F)c(F)c2cccnc2c1O [Example 125, 5,6-difluoro-7-nitroquinolin-8-ol] | 8 (≈ 35.4 µM) | 16 (≈ 70.8 µM) | 8 (≈ 35.4 µM) | 8 (≈ 35.4 µM) | 8 (≈ 35.4 µM) | 8 (≈ 35.4 µM) | 16 (≈ 70.8 µM) | 16 (≈ 70.8 µM) | 8 (≈ 35.4 µM) |  |  |  |  |  |  |  |  |  |
| CCN(CC)Cc1cnc2c(O)c([N+](=O)[O-])ccc2c1 [Example 98, 3-((diethylamino)methyl)-7-nitroquinolin-8-ol] |  |  |  |  |  |  |  |  |  | 64 (≈ 232 µM) | 128 (≈ 465 µM) | 64 (≈ 232 µM) | 32 (≈ 116 µM) | 64 (≈ 232 µM) | 64 (≈ 232 µM) | 128 (≈ 465 µM) | 128 (≈ 465 µM) | 64 (≈ 232 µM) |
| CCOC(=O)c1cnc2c(O)c([N+](=O)[O-])ccc2c1 [Example 88, ethyl 8-hydroxy-7-nitroquinoline-3-carboxylate] |  |  |  |  |  |  |  |  |  | > 128 | > 128 | 128 (≈ 488 µM) | 4 (≈ 15.3 µM) | 16 (≈ 61 µM) | 16 (≈ 61 µM) | > 128 | > 128 | > 128 |
| [2H]c1ccnc2c(O)c([N+](=O)[O-])cc(Cl)c12 [Example 120, 5-chloro-7-nitroquinolin-4-d-8-ol] |  |  |  |  |  |  |  |  |  | 8 (≈ 35.5 µM) | 16 (≈ 70.9 µM) | 8 (≈ 35.5 µM) | 4 (≈ 17.7 µM) | 16 (≈ 70.9 µM) | 8 (≈ 35.5 µM) | 32 (≈ 142 µM) | 32 (≈ 142 µM) | 16 (≈ 70.9 µM) |
| O=[N+]([O-])c1ccc2cc(C3CC3)cnc2c1O [Example 112, 3-cyclopropyl-7-nitroquinolin-8-ol] |  |  |  |  |  |  |  |  |  | 8 (≈ 34.7 µM) | 32 (≈ 139 µM) | 32 (≈ 139 µM) | 2 (≈ 8.69 µM) | 4 (≈ 17.4 µM) | 4 (≈ 17.4 µM) | 64 (≈ 278 µM) | 128 (≈ 556 µM) | 32 (≈ 139 µM) |
| Cc1cnc2c(O)c([N+](=O)[O-])cc(Cl)c2c1 [Example 83, 5-chloro-3-methyl-7-nitroquinolin-8-ol] |  |  |  |  |  |  |  |  |  | 32 (≈ 134 µM) | 64 (≈ 268 µM) | 16 (≈ 67 µM) | 4 (≈ 16.8 µM) | 4 (≈ 16.8 µM) | 4 (≈ 16.8 µM) | 128 (≈ 536 µM) | 128 (≈ 536 µM) | 32 (≈ 134 µM) |
| CCN(CC)Cc1cnc2c(O)c([N+](=O)[O-])cc(Cl)c2c1.O=C(O)C(F)(F)F.O=C(O)C(F)(F)F [Example 90, 5-chloro-3-((diethylamino)methyl)-7-nitroquinolin-8-ol ditrifluoroacetate] |  |  |  |  |  |  |  |  |  | 32 | 128 | 32 | 32 | 32 | 32 | 64 | > 128 | 64 |
| O=[N+]([O-])c1ccc2c(C(F)F)ccnc2c1O [Example 81, 4-(difluoromethyl)-7-nitroquinolin-8-ol] |  |  |  |  |  |  |  |  |  | 16 (≈ 66.6 µM) | 32 (≈ 133 µM) | 16 (≈ 66.6 µM) | 8 (≈ 33.3 µM) | 16 (≈ 66.6 µM) | 16 (≈ 66.6 µM) | 32 (≈ 133 µM) | 128 (≈ 533 µM) | 16 (≈ 66.6 µM) |
| O=[N+]([O-])c1ccc2c(OC(F)F)ccnc2c1O [Example 77, 4-(difluoromethoxy)-7-nitroquinolin-8-ol] |  |  |  |  |  |  |  |  |  | 16 (≈ 62.5 µM) | 32 (≈ 125 µM) | 8 (≈ 31.2 µM) | 8 (≈ 31.2 µM) | 8 (≈ 31.2 µM) | 8 (≈ 31.2 µM) | 16 (≈ 62.5 µM) | 128 (≈ 500 µM) | 16 (≈ 62.5 µM) |
| [2H]c1ccc2ccc([N+](=O)[O-])c(O)c2n1 [Example 116, 7-nitroquinolin-2-d-8-ol] |  |  |  |  |  |  |  |  |  | 4 (≈ 20.9 µM) | 4 (≈ 20.9 µM) | 4 (≈ 20.9 µM) | 4 (≈ 20.9 µM) | 8 (≈ 41.8 µM) | 4 (≈ 20.9 µM) | 16 (≈ 83.7 µM) | 16 (≈ 83.7 µM) | 8 (≈ 41.8 µM) |
| O=[N+]([O-])c1cc(Cl)c2c(N3CCCC(c4ccccc4)C3)ccnc2c1O (stereo not drawn) [Example 111, 5-chloro-7-nitro-4-(3-phenylpiperidin-1-yl)quinolin-8-ol] |  |  |  |  |  |  |  |  |  | > 128 | > 128 | > 128 | > 128 | > 128 | > 128 | > 128 | > 128 | > 128 |
| Cl.Cl.Cl.O=[N+]([O-])c1cc(CN2CCNCC2)c2cccnc2c1O [Example 101, 7-nitro-5-(piperazin-1-ylmethyl)quinolin-8-ol trihydrochloride] |  |  |  |  |  |  |  |  |  | > 128 | > 128 | > 128 | > 128 | > 128 | > 128 | > 128 | > 128 | > 128 |
| Cc1cnc2c(O)c([N+](=O)[O-])cc(C3CC3)c2c1 [Example 84, 5-cyclopropyl-3-methyl-7-nitroquinolin-8-ol] |  |  |  |  |  |  |  |  |  | 64 (≈ 262 µM) | 128 (≈ 524 µM) | 64 (≈ 262 µM) | 4 (≈ 16.4 µM) | 64 (≈ 262 µM) | 4 (≈ 16.4 µM) | > 128 | > 128 | 64 (≈ 262 µM) |
| [2H]c1ccc2c(Cl)cc([N+](=O)[O-])c(O)c2n1 [Example 113, 5-chloro-7-nitroquinolin-2-d-8-ol] |  |  |  |  |  |  |  |  |  | 8 (≈ 35.5 µM) | 16 (≈ 70.9 µM) | 8 (≈ 35.5 µM) | 4 (≈ 17.7 µM) | 4 (≈ 17.7 µM) | 4 (≈ 17.7 µM) | 16 (≈ 70.9 µM) | 16 (≈ 70.9 µM) | 8 (≈ 35.5 µM) |
| O=[N+]([O-])c1cc(CN2CCCCC2)c2cccnc2c1O [Example 91, 7-nitro-5-(piperidin-1-ylmethyl)quinolin-8-ol acetate] |  |  |  |  |  |  |  |  |  | > 128 | > 128 | 128 | > 128 | > 128 | > 128 | > 128 | > 128 | 128 |
| CNCc1cc([N+](=O)[O-])c(O)c2ncccc12.Cl.Cl [Example 99, 5-((methylamino)methyl)-7-nitroquinolin-8-ol dihydrochloride] |  |  |  |  |  |  |  |  |  | > 128 | > 128 | 128 | > 128 | > 128 | > 128 | > 128 | > 128 | > 128 |
